Measured values from patent US11286231B2, “Hydrogen-bonding compounds, compositions comprising the same, and methods of preparing and using the same” (Wake Forest University Health Sciences, priority 2016, dated 2022).

Columns and labels:
[1] = system: Caco-2; experiment: 3D Live/Dead assay with red vs green pixel analysis; format: cell-based; conditions: Caco-2, 3D, days 1, 4, 7; 1% w/v compound solution
Experimental: (§1) 3.0×10^6 HepG2 and Caco-2 cells were harvested from the tissue culture dishes, respectively. Following, they were centrifuged into cell pellets and the supernatant was discarded. For each cell line, HepG2 and Caco2, three conditions were prepared, i.e., a positive control (HyStem®) and two experimental conditions (HyStem®+C1.1 and HyStem®+C1.2). To prepare each condition, a 3.0×10^6 cell pellet was suspended in 500 μL 1% w/v Heprasil®, 500 μL 1% w/v Gelatin-S®, 125 μL of 2% w/v Extralink®, and 125 μL of 1% w/v C1.1/C1.2 (experimental conditions) or 125 μL of sterile, deionized water (positive control). The final cell density for each condition was […]. One 50 μL sample of each hydrogel condition at each condition was aliquoted into a 96-well for each time point (1, 4, and 7 days). […] At each time point media was aspirated from the wells and were subsequently incubated for 45-60 min with 200 μL of DPBS containing […] of calcein AM and […] of ethidium homodimer. Live cells fluoresce green due to the uptake and hydrolysis of calcein AM, and the nuclei of dead cells are labelled by the red-fluorescent ethidium homodimer.
(§2) A MATLAB (MathWorks®) script (supplemental information, S.3) was used to quantify red and green fluorescent signals generated by biochemical interactions between the ethidium homodimer and calcein AM, and cells, respectively.
(§3) Quantification of the red (dead) and green (viable) pixels was performed using an image processing script written on MATLAB (S.3). In this case, the live cell staining corresponds with the cytoplasm of the cell while the dead stain only highlights the nuclei of the cell therefore we use the ratio of red to green pixels as a quantification to show the relative cell-viability rather than report individual Live/Dead cell quantification over time.

[2] = system: HepG2; experiment: as above; format: cell-based; conditions: HepG2, 3D, days 1, 4, 7; 1% w/v compound solution
Experimental: as §1, §2, §3

[3] = Rheometer tensile strength T′ (adhesive force) test of HyStem hydrogels; format: physicochemical; conditions: for increase in T′ when concentration is doubled: 0.25% to 0.50% to 1.0% w/v; for fold increase in tensile strength T′: 1.0% w/v solution; for tensile strength T′: n=3
Experimental: To a 2 mL centrifuge tube, 200 μL of Heprasil® solution (1% w/v solution, thiolated HA component of HyStem kit), 200 μL of Gelin-S® solution (1% w/v, thiolated gelatin component of HyStem kit), 50 μL of Extralink® solution (2% w/v, polyethylene glycol diacrylate component of HyStem kit), and 50 μL of a modular catecholamine (C1.1) or amide […] solutions (0.25%-1.5% w/v, see Rheology section for specifics) were added and mixed by softly pipetting the solution up and down carefully to avoid creating bubbles. For control experiments the modular catecholamide or amine solutions were replaced with an equivalent volume of sterile deionized water. For rheology or cell culture studies, the reaction mixture was placed into wells of an appropriate size and exposed to UV radiation (˜222 nm) for 1-5 seconds.
A Discovery HR-2 Rheometer (TA Instruments) with an 8 mm geometry was used to collect the tensile strength, T′, data. The test was designed to quantify the axial force (Pa) exerted by the hydrogel on the geometry as measured by the rheometer as the geometry is slowly raised over 2000 μm at 25° C. The absolute value of the axial force (Pa) was then taken to be the adhesive force or tensile strength T′ (Pa) assigned to the hydrogel. To ensure standard conditions across all experiments the geometry was lowered into the gels until a calibration force of 0.4N was observed. Following, a rheometer tensile strength test was applied to the hydrogels at each of the respective conditions containing varying concentrations (0% w/v, 0.25% w/v, 0.50% w/v, and 1.0% w/v) of modular amine compounds, C1.0-C1.2. This experiment was repeated in triplicate for each condition.
While not wishing to be bound to any particular theory, our assumption here is that increased intermolecular interactions are occurring with the C1.2. In addition to the ortho-dihydroxyl groups offered by the catechol moiety, the amide moiety offers an extra hydrogen […] species, the carbonyl oxygen (C═O), for intermolecular interactions between the adjacent catecholamides. The catecholamides located on different HA chains or gelatin increase the ability for the hydrogel matrix to both interact with itself and other substrates through hydrogen bonding. Whereas the amine (C1.1) has a secondary carbon in the same position as the carbonyl functional group on the amide (C1.2), we postulate that the lack of this hydrogen bonding position yields a lower increase in G′ observed in hydrogel when comparing the two compounds. Again, to ensure standard conditions across all experiments, the geometry was lowered into the gels until a calibration force of 0.4N was detected. Following, a tensile strength test (25 μm/s, […], 25° C.) was applied to hydrogels containing varying concentrations (0%, 0.25%, […], and 1.0% w/v) of modular amine solutions, C1.1/C1.2. The reported values are the average T′ (Pa) values for n=3 runs at every condition and uncertainties were calculated from standard deviations between n=3 averaged T′ (Pa) for each condition. In FIG. 4, we report the following T′ (Pa) values for hydrogels containing C1.1: (1.10×10^2+/−2.91×10^1) Pa for Hystem® control, (2.90×10^2+/−1.23×10^2) Pa for Hystem®+0.25% w/v catecholamine, (4.25×10^2+/−1.01×10^2) Pa for Hystem® +0.50% w/v catecholamine, and (8.48×10^2+/−1.42×10^2) Pa for Hystem®+1.0% w/v catecholamine. […] In addition, we collected the following T′ values (Pa) for hydrogels containing C1.2: (1.09×10^2+3.64×10^1) Pa for Hystem® control, (3.33×10^2+/−6.16×10^1) Pa for Hystem®+0.25% w/v catecholamide, (4.12×10^2+/−6.39×10^1) Pa for Hystem®+0.50% w/v catecholamide, and (1.16×10^3+/−6.34×10^1) Pa for Hystem®+1.0% w/v catecholamide. […] Conclusively, we can say the increase in allotted tensile strength T′ (Pa) of the hydrogels when cross comparing compounds, C1.1 and C1.2, is due to the amide moiety having higher hydrogen bonding capacities.

[4] = Hystem + 0.25% w/v compound solution
[5] = Hystem + 0.50% w/v compound solution
[6] = Hystem + 1.0% w/v compound solution

Compound: C#CCNCc1ccc(O)c(O)c1 [Compound C1.1]
- biocompatibility / cell viability in hydrogel (Live/Dead) [1]: only a slightly depressed biocompatibility
- biocompatibility / cell viability in hydrogel (Live/Dead) [2]: only a slightly depressed biocompatibility
- increase in T′ when concentration is doubled [3]: ~100%
- fold increase in tensile strength T′ [3]: approximately 4 fold
- tensile strength T′ [3, 4]: 2.90×10^2+/−1.23×10^2 Pa
- increase in T′, 0.50% w/v to 1.0% w/v ([3]; Hystem + 0.50% w/v compared to Hystem + 1.0% w/v): 4.13×10^2+/−1.56×10^1 Pa
- tensile strength T′ [3, 5]: 4.25×10^2+/−1.01×10^2 Pa
- tensile strength T′ [3, 6]: 8.48×10^2+/−1.42×10^2 Pa

Compound: C#CCNC(=O)Cc1ccc(O)c(O)c1 [Compound C1.2]
- biocompatibility / cell viability in hydrogel (Live/Dead) [1]: only a slightly depressed biocompatibility
- biocompatibility / cell viability in hydrogel (Live/Dead) [2]: only a slightly depressed biocompatibility
- increase in T′ when concentration is doubled [3]: 200%
- fold increase in tensile strength T′ [3]: ~6 fold
- tensile strength T′ [3, 4]: 3.33×10^2+/−6.16×10^1 Pa
- tensile strength T′ [3, 5]: 4.12×10^2+/−6.39×10^1 Pa
- tensile strength T′ [3, 6]: 1.16×10^3+/−6.34×10^1 Pa
